From ChEMBL document CHEMBL1201862, “PubChem BioAssay data set” (2004)
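Exposure lasted 48 hours, with cells grown in 96-well plates and compounds tested at five concentrations. At the GI50, growth is halved.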 Calls of active or inactive are those of the source. No stated cut-off is given here; in the data, active = GI50 up to about 1.1 µM and inactive = higher.

Columns and labels:
Assay in all cases: inhibition of tumour cell growth, NCI panel, 48 h
MOLT-4 = tested on: MOLT-4
SK-MEL-5 = tested on: SK-MEL-5
SF-539 = tested on: SF-539
NCI-H522 = tested on: NCI-H522
SW-620 = tested on: SW-620
CCRF-CEM = tested on: CCRF-CEM
LXFL 529 = tested on: LXFL 529
SN12C = tested on: SN12C
TK-10 = tested on: TK-10
HCT-116 = tested on: HCT-116
HCT-15 = tested on: HCT-15
SF-268 = tested on: SF-268
786-0 = tested on: 786-0
OVCAR-4 = tested on: OVCAR-4
UO-31 = tested on: UO-31
NCI-H460 = tested on: NCI-H460
OVCAR-5 = tested on: OVCAR-5
DU-145 = tested on: DU-145
MDA-N = tested on: MDA-N
BT-549 = tested on: BT-549

| Compound | GI50 (MOLT-4) | GI50 (SK-MEL-5) | GI50 (SF-539) | GI50 (NCI-H522) | GI50 (SW-620) | GI50 (CCRF-CEM) | GI50 (LXFL 529) | GI50 (SN12C) | GI50 (TK-10) | GI50 (HCT-116) | GI50 (HCT-15) [µM] | GI50 (SF-268) | GI50 (786-0) | GI50 (OVCAR-4) | GI50 (UO-31) | GI50 (NCI-H460) | GI50 (OVCAR-5) | GI50 (DU-145) | GI50 (MDA-N) | GI50 (BT-549) |
| --- | --- | --- | --- | --- | --- | --- | --- | --- | --- | --- | --- | --- | --- | --- | --- | --- | --- | --- | --- | --- |
| COC(=O)c1ccccc1NC(=O)C(=O)NNC(=O)c1ccncc1 | > 100 µM (inactive) | > 100 µM (inactive) | > 100 µM (inactive) | > 100 µM (inactive) | > 100 µM (inactive) | > 100 µM (inactive) | > 100 µM (inactive) | > 100 µM (inactive) | > 100 µM (inactive) | > 100 µM (inactive) | > 100 | > 10 µM (inactive) | > 100 µM (inactive) | > 100 µM (inactive) | > 100 µM (inactive) | > 100 µM (inactive) | – | – | – | – |
| Clc1ccccc1C1=NN(c2ccccc2)C2c3ccccc3OCC12 (stereo not drawn) | 57.8 µM (inactive) | 79.6 µM (inactive) | – | > 100 µM (inactive) | > 100 µM (inactive) | 64.9 µM (inactive) | 66.7 µM (inactive) | – | > 100 µM (inactive) | 43.3 µM (inactive) | – | > 100 µM (inactive) | 74.5 µM (inactive) | – | > 100 µM (inactive) | > 100 µM (inactive) | > 100 µM (inactive) | – | – | – |
| CCCO/S(=N\S(=O)(=O)c1ccccc1)c1ccccc1[N+](=O)[O-] (stereo not drawn) | > 100 µM (inactive) | > 100 µM (inactive) | > 100 µM (inactive) | > 100 µM (inactive) | > 100 µM (inactive) | > 100 µM (inactive) | > 100 µM (inactive) | > 100 µM (inactive) | – | > 100 µM (inactive) | > 100 | > 100 µM (inactive) | > 100 µM (inactive) | > 100 µM (inactive) | > 100 µM (inactive) | > 100 µM (inactive) | > 100 µM (inactive) | – | – | – |
| [N-]=[N+]=NC1CC(n2cc(COCC(F)(F)F)c(=O)[nH]c2=O)OC1CO (stereo not drawn) | > 100 µM (inactive) | > 100 µM (inactive) | > 100 µM (inactive) | > 100 µM (inactive) | > 100 µM (inactive) | > 100 µM (inactive) | > 100 µM (inactive) | > 100 µM (inactive) | > 100 µM (inactive) | – | – | > 100 µM (inactive) | > 100 µM (inactive) | > 100 µM (inactive) | > 100 µM (inactive) | > 100 µM (inactive) | > 100 µM (inactive) | – | – | – |
| Cc1cc2c(cc1C)[n+]([O-])c(C(=O)/C=C/c1ccc(Cl)cc1)c(C)[n+]2[O-] | 23.8 µM (inactive) | 23.7 µM (inactive) | 20.5 µM (inactive) | 19.4 µM (inactive) | 31.1 µM (inactive) | 32.9 µM (inactive) | 28.2 µM (inactive) | 32.8 µM (inactive) | 22.2 µM (inactive) | – | 33 | > 10 µM (inactive) | 18.9 µM (inactive) | 33.7 µM (inactive) | 17.9 µM (inactive) | 25.9 µM (inactive) | 42.3 µM (inactive) | – | – | – |
| C[n+]1cccc2ccc3cccnc3c21 | > 100 µM (inactive) | 16.2 µM (inactive) | 48 µM (inactive) | 10 µM (inactive) | 32.4 µM (inactive) | > 100 µM (inactive) | – | 35.1 µM (inactive) | 27.5 µM (inactive) | 19.4 µM (inactive) | 61.8 | 17.6 µM (inactive) | 63.5 µM (inactive) | 33.8 µM (inactive) | 21.8 µM (inactive) | 23.2 µM (inactive) | 82 µM (inactive) | 49.9 µM (inactive) | 67.5 µM (inactive) | 31.7 µM (inactive) |
| CC1=NN(C(=O)CC(=O)Nc2cccc(C)c2)C(=O)C1/N=N\c1ccc(S(=O)(=O)c2ccc(/N=N/C3C(=O)N(C(=O)CC(=O)Nc4cccc(C)c4)N=C3C)cc2)cc1 (stereo not drawn) | > 100 µM (inactive) | > 100 µM (inactive) | > 100 µM (inactive) | > 100 µM (inactive) | > 100 µM (inactive) | > 100 µM (inactive) | – | > 100 µM (inactive) | > 100 µM (inactive) | > 100 µM (inactive) | > 100 | > 100 µM (inactive) | > 100 µM (inactive) | > 100 µM (inactive) | > 100 µM (inactive) | > 100 µM (inactive) | > 100 µM (inactive) | > 100 µM (inactive) | > 100 µM (inactive) | > 100 µM (inactive) |
| NC(Cc1ccc(S(=O)(=O)O)cc1)C(=O)NC(CCCCNC(=O)NCCCCC(NC(=O)C(N)Cc1ccc(S(=O)(=O)O)cc1)C(=O)NC(Cc1ccc(S(=O)(=O)O)cc1)C(=O)O)C(=O)NC(Cc1ccc(S(=O)(=O)O)cc1)C(=O)O (stereo not drawn) | > 100 µM (inactive) | > 100 µM (inactive) | > 100 µM (inactive) | > 100 µM (inactive) | > 100 µM (inactive) | > 100 µM (inactive) | – | > 100 µM (inactive) | > 100 µM (inactive) | > 100 µM (inactive) | > 100 | > 100 µM (inactive) | > 100 µM (inactive) | > 100 µM (inactive) | > 100 µM (inactive) | > 100 µM (inactive) | > 100 µM (inactive) | > 100 µM (inactive) | > 100 µM (inactive) | > 100 µM (inactive) |
